The source of these data is ChEMBL document CHEMBL1137883, “Synthesis and vasorelaxant properties of hybrid molecules out of NO-donors and the beta-receptor blocking drug propranolol” (2004).

The species entered for experiment [1] is Sus scrofa. The experiment in a line: Concentration required for relaxation of PGF2-alpha (3 uM)-precontracted porcine pulmonary arteries; activity expressed as pD2.
The species entered for experiment [2] is Sus scrofa. The experiment can be described thus: Concentration required for relaxation of isolated porcine coronary arteries; activity expressed as pD2. It counts as functional.

In experiment [1], `CC(=O)N[C@@H](C(=O)N(CC(O)COc1cccc2ccccc12)C(C)C)C(C)(C)SN=O` (some centres undefined) displayed a pD2 of 6.94.

Take `CC(C)N(CC(O)COc1cccc2ccccc12)C(=O)C(C)(C)CO[N+](=O)[O-]` (centres undefined): the pD2 in experiment [1] is 5.4.

As to `CC(C)(CO[N+](=O)[O-])C(=O)O`, in experiment [1], the pD2 stood at 4.69.

`CC(=O)N[C@@H](C(=O)O)C(C)(C)SN=O`: in experiment [2], the pD2 was 6.69.
